Assay results as given in paper PMC12040169 (PLOS Biology, 2025).

Assay: in vitro
Conditions: human, hela cells, % viability

Structure (SMILES) | viability at 28.5 h, 10 µM
CC(C)CC(=O)N1C[C@H]2CCCN(Cc3ccsc3)[C@H]2C1 [CBK285290] | 102%
Cc1cccn2c(=O)c(/C=C3\SC(=S)NC3=O)c(NCCCN3CCOCC3)nc12 [CBK264904] | 104%
CCOc1ccccc1OCCCOc1ccc(C(=O)O)cc1 [CBK295144] | 110%
CC(=O)Nc1ccc(-c2cc(Nc3ccc(NC(=O)c4ccc(N)cc4)cc3)ncn2)cc1 [CBK091103] | 97%
O=C(CSCc1ccccc1Cl)Nc1ccc(-c2nnc(-c3ccccc3)o2)cc1 [CBK268656] | 111%
CSc1ncc(C(=O)NC2CCCC2)c(NC2CCCC2)n1 [CBK291223] | 91.3%
O=C(c1ccc(NS(=O)(=O)c2ccccc2)cc1)N1CCN(Cc2ccc3c(c2)OCO3)CC1 [CBK267957] | 102%
Cc1ccc(-c2nnc3sc(-c4cnccn4)nn23)cc1 [CBK268258] | 98.9%
NS(=O)(=O)c1ccc(CCNC(=O)C2c3ccccc3Oc3ccccc32)cc1 [CBK264389] | 104%
COc1ccc(-c2cnc(N)c(NCC(C)C)n2)c(OC)c1OC [CBK063855] | 95.4%
COCc1nnc(Sc2nccnc2NC(C)C)s1 [CBK115204] | 99.6%
c1cnc(N2CCCC2)c(Sc2nc[nH]n2)n1 [CBK093737] | 102%
CSc1ccc(C(NC(=O)OC(C)(C)C)C(=O)O)cc1 (stereo not shown) [CBK287196] | 80.4%
COc1ccc(C(=O)C2=C(O)C(=O)N(CCN(C)C)C2c2cccc([N+](=O)[O-])c2)cc1Cl (stereo not shown) [CBK266474] | 102%
COc1ccc(C(=O)[C@@H]2CCCN(C(=O)OC(C)(C)C)C2)cc1 [CBK284308] | 98.7%
COc1ccccc1-c1ccc(CC2(C(=O)NCc3cccs3)CCOCC2)cc1 [CBK286517] | 93%
O=C(NCCCN1CCOCC1)Nc1cccc(Cl)c1Cl [CBK016286] | 85.5%
O=C1COc2ccccc2C/C=C/CC2(CCN(C(=O)Cn3cccn3)CC2)C(=O)NCCN1 [CBK292003] | 117%
COC(=O)c1ccc(-n2cccn2)c(C#Cc2cccnc2)c1 [CBK284525] | 95.2%
CCc1noc(C)c1C(=O)NCc1cccnc1N(C)C1CCCCC1 [CBK306804] | 98.9%
O=C1CC2(C(=O)N1Cc1ccccc1)C(=O)N(Cc1csc(-c3ccccc3)n1)c1ccccc12 (stereo not shown) [CBK075673] | 112%
OCC1OC(n2cnc3c(Oc4ccccc4)ncnc32)CC1O (stereo not shown) [CBK201181] | 91.5%

Structure (SMILES) | viability at 28.5 h, 10 µM
CC(=O)c1ccc(O)c2ncccc12 [CBK015821] | 110%
Cc1c(C(=O)C2=C(O)C(=O)N(CCCN(C)C)C2c2ccccn2)cnn1-c1ccccc1 (stereo not shown) [CBK266516] | 100%
NNC(=O)COc1ccc2ccccc2c1 [CBK261208] | 104%
c1ccc(COC(c2ccccc2)c2nc3ccccc3n2Cc2ccccc2)cc1 (stereo not shown) [CBK267311] | 98.2%
O=C(Cn1cncn1)N[C@H]1C2CCCCC2[C@@H]1c1ccccc1 (stereo partly shown) [CBK283011] | 93.3%
O=C(O)CC1S/C(=N/N=C2/C(=O)Nc3ccccc32)N(c2ccc(O)cc2)C1=O (stereo not shown) [CBK263723] | 93%
COC[C@@H]1CCCN1S(=O)(=O)c1ccc(OC(F)(F)F)cc1 [CBK044338] | 92.4%
NS(=O)(=O)c1ccc(CCNC(=O)c2ccc(-c3ccccc3)nc2NCCc2ccccn2)cc1 [CBK076616] | 111%
CCOC(=O)c1csc(C2CCCN2C(=O)c2ccoc2C)n1 (stereo not shown) [CBK304080] | 109%
Cc1nnc(SCC(=O)N2CCN(Cc3ccccc3)CC2)s1 [CBK267196] | 96%
O=C(CSc1nc2cccnc2[nH]1)Nc1cccc(F)c1 [CBK270113] | 89.3%
O=C(NCc1ccccn1)c1ccccc1Nc1cccc(C(F)(F)F)c1 [CBK107252] | 86.3%
CC(=O)C(Sc1nc(N2CCOCC2)nc(N2CCOCC2)n1)C(=O)Nc1ccccc1 (stereo not shown) [CBK266643] | 93%
Fc1ccc2[nH]c3c(c2c1)CCOC31CCN(C/C=C\c2ccccc2)CC1 [CBK040141] | 70.1%
CC(NC1CCCN(c2ccc(C#N)cc2)C1=O)c1cncc(F)c1 (stereo not shown) [CBK306404] | 90.7%
O=C1NC2(CCCC2)N=C1c1ccc(Cl)cc1Cl [CBK288042] | 82.4%
COc1cc(C2C(C(=O)c3ccc(C)o3)=C(O)C(=O)N2Cc2cccnc2)cc(OC)c1OC (stereo not shown) [CBK264933] | 110%
CC(C)CCNC(=O)N1CCNC(=O)C1 [CBK155874] | 98.3%
COCc1ccc(C(=O)N2CCC(c3cc4ncccc4[nH]3)CC2)o1 [CBK283373] | 102%
Cc1c(C)n(Cc2ccco2)c2ncnc(NCCC(=O)O)c12 [CBK307564] | 86.8%
CC(C)n1c(=O)n(CC(=O)N2CCCCC2)c2cccnc21 [CBK283526] | 90.6%
NC(=O)CCN1CCC(Cc2ccccc2)CC1 [CBK138317] | 117%

Structure (SMILES) | viability at 28.5 h, 10 µM
O=C(NCc1ccco1)C1CCN(c2nccc(C(F)(F)F)n2)CC1 [CBK028778] | 105%
Cc1cc(O)nc(SCC(=O)Nc2cc([N+](=O)[O-])ccc2C)n1 [CBK267488] | 97.9%
Cc1ccc(/C=N\NC(=O)c2cccc(Cl)c2)s1 [CBK016469] | 90.8%
CCN(Cc1c[nH]nc1-c1ccc(OC)cc1F)CC1CCCO1 (stereo not shown) [CBK307350] | 102%
CCC(CC(=O)NCc1c(C)n[nH]c1C)c1c[nH]c2ccccc12 (stereo not shown) [CBK282651] | 87.1%
Cc1noc(C)c1S(=O)(=O)Nc1c(C(=O)N2CCN(C)CC2)[nH]c2ccccc12 [CBK050057] | 98.9%
CCNc1nc2ccccn2c(=O)c1C=C1SC(=S)N(CCCC(=O)O)C1=O [CBK296757] | 87.9%
Cc1nccn1CCNC(=O)CCc1cn(C)c2ccccc12 [CBK281962] | 86.1%
OCc1cc(N2CCOC3(CCCOC3)C2)ncc1F (stereo not shown) [CBK304774] | 94.7%
CCCNc1nccnc1-c1ccccc1F [CBK037231] | 104%
CCn1cncc1C(=O)NCC1(c2ccccc2F)CCOCC1 [CBK281555] | 90.9%
CS(=O)(=O)NCC1(c2ccccc2)CCN(S(=O)(=O)c2c(Cl)cccc2Cl)CC1 [CBK051633] | 89.9%
Cc1oc(NC(=O)CN2CCN(c3ccccn3)CC2)c(C#N)c1C [CBK236456] | 96.9%
COc1ccc(OCCCn2ccn(C(=O)CCCOc3ccc(Cl)cc3)c2=O)cc1 [CBK106662] | 94.3%
CCS(=O)(=O)N1CCN(S(=O)(=O)c2ccccc2[N+](=O)[O-])CC1 [CBK264289] | 99%
c1ccc(C(Nc2ncc(-c3cnccn3)c(-c3ccco3)n2)c2ccccc2)cc1 [CBK286413] | 90%
Clc1ccccc1COc1cccc(/C=N/Nc2nc(N3CCCC3)nc(N3CCCC3)n2)c1 [CBK019076] | 89.8%
O=C(O)c1ccc(S(=O)(=O)NCC2CCCO2)cc1 (stereo not shown) [CBK262364] | 79.8%
Cc1nnc(SCCn2c(N3CCCCC3)nc3c2c(=O)n(C)c(=O)n3C)s1 [CBK269288] | 103%
CC(=O)Nc1cccc(-c2cc(Nc3ccc(N4CCN(Cc5ccccc5)CC4)cc3)ncn2)c1 [CBK037709] | 81.8%
COCCNc1ncnc2sc3c(c12)CCCC3 [CBK287583] | 98.4%
Cc1c(Cl)c([N+](=O)[O-])nn1CC(=O)N1CCN(Cc2ccccc2)CC1 [CBK261720] | 89.8%

Structure (SMILES) | viability at 28.5 h, 10 µM
CCOC(=O)c1c(C)n(-c2ccc(C)cc2)c2ccc(Oc3ncccc3C#N)cc12 [CBK261310] | 109%
CC(=O)N1CCN(c2c(-c3ccccc3)nnc3ccccc23)CC1 [CBK066889] | 91.2%
CC(C)c1cc2cc3ccc(=O)oc3cc2o1 [CBK033944] | 93.6%
Cc1ccc2c(c1)cc(C)c1nn(CC(=O)N3CCCCC3)c(=O)n12 [CBK283870] | 81.6%
c1ccc2c(CCN3CCN(c4nccnc4OC4CCCCC4)CC3)c[nH]c2c1 [CBK082847T] | 100%
COc1ccc(-c2cc(=O)oc3cc(OCC(=O)c4cc5ccccc5o4)ccc23)cc1 [CBK265634] | 97.7%
Nc1nc(CCC(=O)N2CCCC(c3cc(O)ncn3)C2)cs1 (stereo not shown) [CBK306976] | 89.5%
C#CCN(C)CC[C@@H]1CC[C@H](O)[C@@H](C(=O)NC(C)C)O1 [CBK288718] | 109%
Cn1cc(C2CNCCN2C(=O)CCCc2csc3ccccc23)cn1 (stereo not shown) [CBK304274C] | 89.9%
Cc1noc(C)c1C(=O)N1CCCCCC1c1nn(C)cc1Cl (stereo not shown) [CBK285106] | 101%
O=C(O)c1cccc(CSc2nnc(Cc3ccccc3)o2)c1 [CBK268060] | 92%
COc1ccc(Br)cc1CN(CCc1ccc2c(c1)OCO2)Cc1cccnc1 [CBK263327G] | 96.8%
CCOC(=O)N1CCN(CCC(=O)Nc2ccc3c(c2)CCC3)CC1 [CBK264220] | 111%
O=C(Cc1ccc(Cl)c(Cl)c1)N1CCC2(CCN(C(=O)Cc3c[nH]c4ccccc34)C2)C1 (stereo not shown) [CBK131426] | 106%
CC(=O)c1cc2c(N)c(C(N)=O)sc2nc1C [CBK100769] | 102%
COc1ccc([N+](=O)[O-])c(N2CCOC3(CCN(C(=O)OCc4ccccc4)CC3)C2)n1 [CBK161117T] | 103%
CN1CCN(C(=O)Cn2cc(C(=O)Nc3ccc(F)cc3)ccc2=O)C(c2ccccc2)C1 (stereo not shown) [CBK286050] | 81.9%
Brc1cccc(OCc2cccs2)c1 [CBK176011] | 99%
COc1ccc(OC(=O)c2cc(S(=O)(=O)N3CCOCC3)ccc2Cl)cc1 [CBK261655] | 88.9%
COc1ccc(/C(N)=N/OC(=O)Cc2ccc(Cl)cc2)cc1OC [CBK263272] | 93.2%
COc1cccc(OC)c1OCCN1CCC(C(=O)NC(c2ccccc2)c2ccccn2)CC1 (stereo not shown) [CBK148419] | 96.3%
O=C(Nc1nccc(-c2cc(OCC(F)(F)F)ccc2OCC(F)(F)F)n1)c1cccs1 [CBK005949] | 95.5%
